Laboratory results from publication PMC8482766 (Journal of Medicinal Chemistry, 2021).
Converted amounts (≈) assume the structure as drawn. Where two headings read alike, the source gives them in different places.

Assays:
DYRK1A [1] = biological target: T1, DYRK1A (Homo sapiens, UniProt Q13627); type: binding; settings: for LE: LE = 1.4(pIC50)/nonhydrogen atoms; for LLE: LLE = pIC50 – clog P
[2] = system: in-house panel of 48 representative kinases; type: binding
DYRK1A [3] = biological target: T1, DYRK1A; type: binding; settings: SPR, dissociation rate (off-rate)
[4] = system: KINOMEscan panel (DiscoverX) of >400 wild-type human kinases; type: binding; settings: inhibitor concentration = 1 μM
[5] = Thermodynamic solubility at pH 6.8; type: physicochemical
[6] = In vivo pharmacokinetic study, i.v. in Sprague–Dawley rats; settings: 1 mg/kg i.v.
[7] = system: Madin–Darby canine kidney cells transfected with the human MDR1 gene (MDCK-MDR1); test: MDCK-MDR1 permeability and P-gp efflux assay; type: in vitro ADME; settings: MDCK-MDR1, conclusion in words
P-gp (human MDR1) = test: MDCK-MDR1 permeability and P-gp efflux assay; type: in vitro ADME, canine; settings: dog, MDCK-MDR1
[8] = relative to reference compound/matched-molecular pair 11

Compound	fold reduction in DYRK1A binding affinity (DYRK1A [1]; [8])	S score (35) [4]	further results
CC(C)N(c1nccc(-c2cnn3ncccc23)n1)C1CC1 [Compound 13]	–	–	fold reduction in DYRK1A binding affinity (DYRK1A [1]; matched-molecular pairs 12 and 13): 10 fold
CN(C)c1nccc(-c2c[nH]c3ncccc23)n1 [Compound 78]	–	–	selectivity by thermal stabilization (in words) [2]: cross-reacted with several additional kinases including the NAK kinases AAK1 and BMP2K
CN(C)c1ncc(F)c(-c2cnn3ncccc23)n1 [Compound 95, 5-Fluoro-N,N-dimethyl-4-pyrazolo[1,5-b]pyridazin-3-yl-pyrimidin-2-amine]	–	–	kd (DYRK1A [3]): 0.06 s^–1
C[C@@H]1CCN(c2nccc(-c3cnn4ncccc34)n2)C1 [Compound 29, 3-[2-[(3R)-3-Methylpyrrolidin-1-yl]pyrimidin-4-yl]pyrazolo[1,5-b]pyridazine]	–	0.035	–
F[C@@H]1CCN(c2nccc(-c3cnn4ncccc34)n2)C1 [Compound 31, 3-[2-[(3R)-3-Fluoropyrrolidin-1-yl]pyrimidin-4-yl]pyrazolo[1,5-b]pyridazine]	–	0.011	–
Cc1cccc(N(C)c2nccc(-c3cnn4ncccc34)n2)c1 [Compound 8b]	–	–	solubility [5]: 10 µg/mL (≈ 31.6 µM)
Cc1nn2ncccc2c1-c1ccnc(N(C)C)n1 [Compound 60]	–	–	DYRK1A binding affinity (in words) (DYRK1A [1]; TR-FRET assay): no binding affinity
C[C@H]1CCN(c2nccc(-c3cnn4ncccc34)n2)C1 [Compound 28, 3-[2-[(3S)-3-Methylpyrrolidin-1-yl]pyrimidin-4-yl]pyrazolo[1,5-b]pyridazine]	–	0.050	–
c1cnn2ncc(-c3ccnc(N4CCC45COC5)n3)c2c1 [Compound 22, 1-(4-Pyrazolo[1,5-b]pyridazin-3-yl-pyrimidin-2-yl)-6-oxa-1-azaspiro[3.3]heptane]	–	0.042	–
CN(c1nccc(-c2cnn3ncccc23)n1)C1CC1 [Compound 12, N-Cyclopropyl-N-methyl-4-pyrazolo[1,5-b]pyridazin-3-yl-pyrimidin-2-amine]	–	0.013	–
N[C@H]1CCN(c2nccc(-c3cnn4ncccc34)n2)C1 [Compound 33, (3S)-1-(4-pyrazolo[1,5-b]pyridazin-3-yl-pyrimidin-2-yl)pyrrolidin-3-amine]	–	0.027	–
Cc1cnn2ncc(-c3ccnc(N(C)C)n3)c2c1 [Compound 63, N,N-Dimethyl-4-(5-methylpyrazolo[1,5-b]pyridazin-3-yl)pyrimidin-2-amine]	–	0.027	–
CN(C)c1nccc(-c2cnn3ncccc23)n1 [Compound 11, N,N-Dimethyl-4-pyrazolo[1,5-b]pyridazin-3-yl-pyrimidin-2-amine]	–	0.027	adverse effects [6]: no adverse effects reported; P-gp substrate [7]: not a P-gp substrate; Papp A→B (P-gp (human MDR1)): 71.4 ± 0.65 ×10⁻⁶ cm/s; Papp B→A (P-gp (human MDR1)): 58.7 ± 1.45 ×10⁻⁶ cm/s
CC1CCCN1c1nccc(-c2cnn3ncccc23)n1 (stereo not shown) [Compound 24, 3-[2-(2-Methylpyrrolidin-1-yl)pyrimidin-4-yl]pyrazolo[1,5-b]pyridazine]	–	0.004	–

Now from value to compound, other results behind:

fold reduction in DYRK1A binding affinity (DYRK1A [1]; [8])	Compound	S score (35) [4]	further results
~2 fold	COc1ccnn2ncc(-c3ccnc(N(C)C)n3)c12 [Compound 66, 4-(4-Methoxypyrazolo[1,5-b]pyridazin-3-yl)-N,N-dimethyl-pyrimidin-2-amine]	–	–
~10 fold	Cc1ccnn2ncc(-c3ccnc(N(C)C)n3)c12 [Compound 64]	–	–
approximately 10 fold	CN(C)c1cccc(-c2cnn3ncccc23)n1 [Compound 111]	–	LE (DYRK1A [1]): 0.47; LLE (DYRK1A [1]): 3.79
10 fold	CN(C)c1cc(-c2cnn3ncccc23)ccn1 [Compound 113]	–	LE (DYRK1A [1]): 0.48; LLE (DYRK1A [1]): 4.31
> 10 fold	COc1ccc2c(-c3ccnc(N(C)C)n3)cnn2n1 [Compound 65]	–	–
> 10 fold	Cc1ccc2c(-c3ccnc(N(C)C)n3)cnn2n1 [Compound 62]	–	–
